Reference: ChEMBL document CHEMBL1135809 (J Med Chem, 2002)

How the values were obtained:
Substance-P receptor = Substance-P receptor (Homo sapiens, UniProt P25103); test: Inhibition of [Sar9,Met(O2)11]-SP binding to human Tachykinin receptor 1 (NK1)
[1] = Inhibition of prazosin binding to noradrenaline alpha-1 receptor
[2] = target: Glutamate receptor ionotropic, NMDA 2C (Rattus norvegicus, UniProt Q00961); test: Inhibition of MK 801 binding to NMDA, PCP receptor
[3] = target: T1, Alpha-2A adrenergic receptor (Homo sapiens, UniProt P08913); test: Inhibition of idazoxane binding to noradrenaline alpha-2 receptor
T1 sequence (P08913 whole entry): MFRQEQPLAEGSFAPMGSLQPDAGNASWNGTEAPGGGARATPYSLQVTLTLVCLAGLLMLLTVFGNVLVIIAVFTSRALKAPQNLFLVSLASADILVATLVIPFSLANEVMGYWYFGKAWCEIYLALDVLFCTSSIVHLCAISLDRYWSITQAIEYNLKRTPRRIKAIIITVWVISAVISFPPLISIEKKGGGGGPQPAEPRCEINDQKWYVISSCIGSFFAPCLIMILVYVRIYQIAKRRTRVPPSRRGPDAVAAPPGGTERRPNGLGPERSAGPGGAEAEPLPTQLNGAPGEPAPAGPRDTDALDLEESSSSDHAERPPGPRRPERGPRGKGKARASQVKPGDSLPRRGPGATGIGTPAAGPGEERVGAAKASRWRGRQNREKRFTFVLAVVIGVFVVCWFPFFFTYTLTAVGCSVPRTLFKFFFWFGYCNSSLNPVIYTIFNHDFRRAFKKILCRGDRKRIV

[4] = target: T2, 5-hydroxytryptamine receptor 3A (Homo sapiens, UniProt P46098); test: Inhibition of GR-65630 binding to 5-hydroxytryptamine 3 receptor
T2 sequence (P46098 whole entry): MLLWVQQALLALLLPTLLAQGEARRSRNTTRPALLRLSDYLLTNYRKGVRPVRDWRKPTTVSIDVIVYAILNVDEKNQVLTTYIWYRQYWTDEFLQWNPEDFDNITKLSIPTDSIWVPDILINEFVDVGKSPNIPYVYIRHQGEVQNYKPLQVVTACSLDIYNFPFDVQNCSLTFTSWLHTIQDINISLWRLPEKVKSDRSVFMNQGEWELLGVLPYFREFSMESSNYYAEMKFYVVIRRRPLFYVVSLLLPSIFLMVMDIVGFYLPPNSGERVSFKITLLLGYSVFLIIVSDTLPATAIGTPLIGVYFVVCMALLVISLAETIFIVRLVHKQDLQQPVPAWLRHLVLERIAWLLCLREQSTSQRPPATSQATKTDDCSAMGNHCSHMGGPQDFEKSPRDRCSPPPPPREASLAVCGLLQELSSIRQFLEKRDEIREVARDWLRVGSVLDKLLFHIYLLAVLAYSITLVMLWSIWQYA

[5] = target: T3, 5-hydroxytryptamine receptor 1A (Mus musculus, UniProt Q64264); test: Inhibition of […] binding to 5-hydroxytryptamine 1A receptor
T3 sequence (Q64264 whole entry): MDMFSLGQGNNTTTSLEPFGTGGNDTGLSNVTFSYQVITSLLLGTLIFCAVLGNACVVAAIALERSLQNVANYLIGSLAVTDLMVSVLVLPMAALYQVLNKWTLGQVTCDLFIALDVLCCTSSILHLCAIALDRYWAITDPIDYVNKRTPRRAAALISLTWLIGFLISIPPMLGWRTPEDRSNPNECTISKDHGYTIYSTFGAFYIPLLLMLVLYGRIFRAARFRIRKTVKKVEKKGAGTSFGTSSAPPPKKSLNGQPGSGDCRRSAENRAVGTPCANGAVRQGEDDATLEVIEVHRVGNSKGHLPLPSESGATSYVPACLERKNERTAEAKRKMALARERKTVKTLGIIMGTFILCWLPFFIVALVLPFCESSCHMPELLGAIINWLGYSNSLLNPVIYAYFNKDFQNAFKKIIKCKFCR

D(1A) dopamine receptor = D(1A) dopamine receptor (Mus musculus, UniProt Q61616); test: Inhibition of SCH 23390 binding to Dopamine receptor D1
Histamine H1 receptor = Histamine H1 receptor (Homo sapiens, UniProt P35367); test: Inhibition of mepyramine binding to Histamine H1 receptor
[6] = The compound was tested for inhibition of noradrenaline reuptake; type: functional
Substance-K receptor = target: T4, Substance-K receptor (Homo sapiens, UniProt P21452); test: Inhibition of [125I]NKA binding to human Tachykinin receptor 2 (NK2)
T4 sequence (P21452 whole entry): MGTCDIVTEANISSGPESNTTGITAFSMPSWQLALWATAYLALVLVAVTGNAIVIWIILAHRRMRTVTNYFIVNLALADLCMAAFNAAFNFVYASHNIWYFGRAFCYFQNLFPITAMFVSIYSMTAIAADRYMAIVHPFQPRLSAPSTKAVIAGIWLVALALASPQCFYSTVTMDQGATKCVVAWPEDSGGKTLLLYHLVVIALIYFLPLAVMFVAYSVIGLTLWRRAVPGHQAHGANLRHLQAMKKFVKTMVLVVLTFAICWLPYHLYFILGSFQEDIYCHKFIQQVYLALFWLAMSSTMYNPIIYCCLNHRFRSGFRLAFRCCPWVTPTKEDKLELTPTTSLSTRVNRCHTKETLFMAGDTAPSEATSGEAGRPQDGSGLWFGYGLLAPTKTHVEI

[7] = target: 5-hydroxytryptamine receptor 2A (Homo sapiens, UniProt P28223); test: Inhibition of ketanserin binding to 5-hydroxytryptamine 2A receptor
Neuromedin-K receptor = target: T5, Neuromedin-K receptor (Homo sapiens, UniProt P29371); test: Inhibition of [125I][MePhe7]-NKB binding to human Tachykinin receptor 3 (NK3)
T5 sequence (P29371 whole entry): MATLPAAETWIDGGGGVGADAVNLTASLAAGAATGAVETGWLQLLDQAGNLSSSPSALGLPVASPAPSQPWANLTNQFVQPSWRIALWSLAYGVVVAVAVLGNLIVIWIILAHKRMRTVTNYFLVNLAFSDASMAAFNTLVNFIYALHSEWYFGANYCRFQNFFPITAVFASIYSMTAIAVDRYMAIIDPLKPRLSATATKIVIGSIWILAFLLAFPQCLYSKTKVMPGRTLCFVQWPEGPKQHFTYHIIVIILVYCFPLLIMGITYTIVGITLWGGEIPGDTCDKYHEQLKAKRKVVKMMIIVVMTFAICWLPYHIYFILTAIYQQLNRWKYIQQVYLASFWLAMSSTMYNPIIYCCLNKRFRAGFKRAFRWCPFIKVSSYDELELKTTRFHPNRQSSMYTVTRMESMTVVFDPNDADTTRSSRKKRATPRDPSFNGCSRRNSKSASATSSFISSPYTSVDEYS

[8] = The compound was tested for inhibition of serotonin reuptake; type: functional
[9] = target: Sigma non-opioid intracellular receptor 1 (Homo sapiens) (UniProt Q99720); test: Selectivity ratio (Sigma1/Sigma2)
Chain of Sigma non-opioid intracellular receptor 1 (Homo sapiens) (Q99720 whole entry): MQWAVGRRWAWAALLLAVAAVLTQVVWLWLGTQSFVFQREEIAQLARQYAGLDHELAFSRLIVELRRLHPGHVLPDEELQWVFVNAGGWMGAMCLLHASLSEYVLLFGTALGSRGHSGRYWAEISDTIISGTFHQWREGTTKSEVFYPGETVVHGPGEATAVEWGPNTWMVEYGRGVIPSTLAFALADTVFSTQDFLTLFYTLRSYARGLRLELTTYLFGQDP

Chain of D(1A) dopamine receptor (Q61616 whole entry): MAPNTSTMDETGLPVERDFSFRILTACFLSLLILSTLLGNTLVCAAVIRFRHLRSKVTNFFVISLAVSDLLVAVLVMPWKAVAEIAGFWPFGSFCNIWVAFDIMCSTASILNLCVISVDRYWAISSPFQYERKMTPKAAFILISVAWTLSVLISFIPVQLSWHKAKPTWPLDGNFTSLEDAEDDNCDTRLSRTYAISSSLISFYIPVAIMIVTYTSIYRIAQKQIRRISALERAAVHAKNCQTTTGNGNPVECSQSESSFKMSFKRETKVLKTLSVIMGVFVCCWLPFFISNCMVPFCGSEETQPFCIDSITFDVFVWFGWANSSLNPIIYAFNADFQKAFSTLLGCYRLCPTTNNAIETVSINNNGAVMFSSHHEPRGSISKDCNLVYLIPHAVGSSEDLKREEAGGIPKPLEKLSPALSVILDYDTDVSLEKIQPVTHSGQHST
Chain of 5-hydroxytryptamine receptor 2A (P28223 whole entry): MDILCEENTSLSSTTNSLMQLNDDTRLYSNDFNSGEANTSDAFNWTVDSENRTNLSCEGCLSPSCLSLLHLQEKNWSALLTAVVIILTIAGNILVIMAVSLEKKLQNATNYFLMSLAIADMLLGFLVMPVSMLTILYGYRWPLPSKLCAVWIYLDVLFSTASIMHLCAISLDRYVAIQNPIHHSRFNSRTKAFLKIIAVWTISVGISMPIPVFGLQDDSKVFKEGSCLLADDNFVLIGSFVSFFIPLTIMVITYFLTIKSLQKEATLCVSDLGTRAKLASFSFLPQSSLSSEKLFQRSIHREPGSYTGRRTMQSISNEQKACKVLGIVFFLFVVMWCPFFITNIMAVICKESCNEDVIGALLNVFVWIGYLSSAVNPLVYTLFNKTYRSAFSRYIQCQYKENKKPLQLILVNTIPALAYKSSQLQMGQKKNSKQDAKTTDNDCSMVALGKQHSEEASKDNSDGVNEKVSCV
Chain of Glutamate receptor ionotropic, NMDA 2C (Q00961 whole entry): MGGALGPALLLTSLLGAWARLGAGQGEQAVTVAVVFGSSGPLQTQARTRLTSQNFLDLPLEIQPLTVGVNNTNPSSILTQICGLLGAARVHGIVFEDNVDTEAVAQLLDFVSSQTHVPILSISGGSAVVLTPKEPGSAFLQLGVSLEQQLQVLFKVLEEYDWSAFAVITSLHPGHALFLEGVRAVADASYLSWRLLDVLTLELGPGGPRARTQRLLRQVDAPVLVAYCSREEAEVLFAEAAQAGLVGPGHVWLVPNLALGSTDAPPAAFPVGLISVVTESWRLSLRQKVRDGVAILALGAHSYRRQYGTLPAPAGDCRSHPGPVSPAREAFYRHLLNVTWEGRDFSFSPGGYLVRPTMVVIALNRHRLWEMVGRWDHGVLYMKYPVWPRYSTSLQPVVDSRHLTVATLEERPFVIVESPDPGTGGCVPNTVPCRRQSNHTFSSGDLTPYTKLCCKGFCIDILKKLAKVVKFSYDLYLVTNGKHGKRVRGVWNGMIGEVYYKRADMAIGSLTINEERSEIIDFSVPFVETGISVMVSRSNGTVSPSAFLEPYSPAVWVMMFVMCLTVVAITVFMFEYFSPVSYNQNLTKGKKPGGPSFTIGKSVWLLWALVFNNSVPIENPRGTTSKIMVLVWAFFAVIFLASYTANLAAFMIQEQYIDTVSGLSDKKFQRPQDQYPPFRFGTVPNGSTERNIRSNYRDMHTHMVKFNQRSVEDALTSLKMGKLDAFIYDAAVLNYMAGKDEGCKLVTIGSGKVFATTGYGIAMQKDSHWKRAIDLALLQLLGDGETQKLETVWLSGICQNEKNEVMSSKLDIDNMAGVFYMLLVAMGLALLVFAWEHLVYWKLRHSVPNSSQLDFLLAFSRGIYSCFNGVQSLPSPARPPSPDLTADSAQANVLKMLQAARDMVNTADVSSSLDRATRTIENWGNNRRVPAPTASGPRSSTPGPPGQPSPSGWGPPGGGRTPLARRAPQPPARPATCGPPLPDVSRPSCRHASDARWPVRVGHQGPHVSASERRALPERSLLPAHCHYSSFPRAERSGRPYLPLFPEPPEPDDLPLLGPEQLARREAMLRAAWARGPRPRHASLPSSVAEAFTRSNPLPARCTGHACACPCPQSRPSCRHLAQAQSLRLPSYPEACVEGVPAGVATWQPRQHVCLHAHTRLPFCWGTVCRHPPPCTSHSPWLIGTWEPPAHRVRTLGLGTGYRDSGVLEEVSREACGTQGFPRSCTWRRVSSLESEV
Chain of Substance-P receptor (P25103 whole entry): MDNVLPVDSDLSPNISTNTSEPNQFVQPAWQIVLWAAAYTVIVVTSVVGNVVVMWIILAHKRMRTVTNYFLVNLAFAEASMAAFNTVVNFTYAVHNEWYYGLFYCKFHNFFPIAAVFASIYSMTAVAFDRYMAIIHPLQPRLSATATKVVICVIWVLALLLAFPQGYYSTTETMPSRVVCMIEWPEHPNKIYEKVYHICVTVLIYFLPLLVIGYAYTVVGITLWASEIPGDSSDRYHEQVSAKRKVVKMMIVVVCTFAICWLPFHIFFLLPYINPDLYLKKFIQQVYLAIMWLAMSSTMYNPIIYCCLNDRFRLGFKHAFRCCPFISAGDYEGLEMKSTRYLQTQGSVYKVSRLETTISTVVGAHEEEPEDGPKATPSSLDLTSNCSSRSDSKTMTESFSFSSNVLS
Chain of Histamine H1 receptor (P35367 whole entry): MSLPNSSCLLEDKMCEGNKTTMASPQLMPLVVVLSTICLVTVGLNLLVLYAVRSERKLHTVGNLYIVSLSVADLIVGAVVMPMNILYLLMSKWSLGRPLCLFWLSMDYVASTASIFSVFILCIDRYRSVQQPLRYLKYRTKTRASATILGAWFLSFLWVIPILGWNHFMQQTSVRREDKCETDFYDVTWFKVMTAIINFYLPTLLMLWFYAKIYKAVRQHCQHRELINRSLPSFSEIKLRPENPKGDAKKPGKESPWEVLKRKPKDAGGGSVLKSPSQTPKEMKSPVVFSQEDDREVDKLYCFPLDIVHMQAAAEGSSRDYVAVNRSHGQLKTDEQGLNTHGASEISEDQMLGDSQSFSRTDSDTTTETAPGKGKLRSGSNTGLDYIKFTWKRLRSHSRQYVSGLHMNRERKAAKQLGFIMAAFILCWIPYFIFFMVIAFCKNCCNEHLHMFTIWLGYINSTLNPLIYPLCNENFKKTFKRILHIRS

| SMILES | IC50 (Substance-P receptor) [µM] | IC50 [1] [µM] | IC50 [2] [µM] | IC50 [3] [µM] | IC50 [4] [µM] | IC50 [5] [µM] | IC50 (D(1A) dopamine receptor) [µM] | IC50 (Histamine H1 receptor) [µM] | IC50 [6] [µM] | IC50 (Substance-K receptor) [µM] | IC50 [7] [µM] | IC50 (Neuromedin-K receptor) [µM] | IC50 [8] [µM] | Selectivity ratio [9] |
| --- | --- | --- | --- | --- | --- | --- | --- | --- | --- | --- | --- | --- | --- | --- |
| COC1OC2(CCN(Cc3ccccc3)CC2)c2ccccc21 (stereo unspecified) | > 10 | > 10 | > 10 | 6.2 | > 10 | > 1 | > 10 | > 10 | > 10 | > 10 | > 10 | > 10 | 8 |  |
| COC1Cc2ccccc2C2(CCN(Cc3ccccc3)CC2)O1 (stereo unspecified) | > 10 |  | > 10 | 3 | > 10 | > 1 | > 10 | > 10 |  | > 10 | 6.6 | > 10 | 6 |  |
| COC1Cc2ccccc2C2(CCN(CCCc3ccccc3)CC2)O1 (stereo unspecified) | > 10 | 1.4 | > 10 | 3.1 | > 10 | > 1 | > 10 | 8 | 0.51 | > 10 | 0.46 | > 10 | 0.7 |  |
| OC1Cc2ccccc2C2(CCN(Cc3ccccc3)CC2)O1 (stereo unspecified) |  |  |  |  |  |  |  |  |  |  |  |  |  | 236 |
| OC1Cc2ccccc2C2(CCN(CCc3ccccc3)CC2)O1 (stereo unspecified) |  |  |  |  |  |  |  |  |  |  |  |  |  | 2 |
| COC1Cc2ccccc2C2(CCN(CCCCc3ccccc3)CC2)O1 (stereo unspecified) |  |  |  |  |  |  |  |  |  |  |  |  |  | 30 |
| COC1Cc2ccccc2C2(CCN(C/C=C/c3ccccc3)CC2)O1 (stereo unspecified) |  |  |  |  |  |  |  |  |  |  |  |  |  | 301 |
